Results reported in US10975069B2, “Sigma-2 receptor ligand drug conjugates as antitumor compounds, methods of synthesis and uses thereof” (priority 2014, dated 2021).

Assay: Toxicity study (necropsy, CBC, clinical chemistry) in tumor bearing mice
Format: in vivo, C57BL/6 mice
Conditions: mouse, in vivo
Method: Six adult female mice were submitted to necropsy. The strain designation of the mice was C57BL/6. […]
Animal studies were performed according to the animal studies protocol approved by Washington University Institutional Animal Care Facility. In vivo studies with mice were performed to compare the effects of SW V-49s, SV119. Erastin, a combination of SV119 with Erastin, and vehicle. […] C57BL/6 mice (6 weeks old. National Cancer Institute Laboratories) were injected in the right flank with 200 μL single cell suspension of KCKO cells in RPMI medium (25×10^4/10^5 cells per mouse). Mice were randomized into four groups (n=15). Treatment was started when the mean tumor diameter was ^˜5 mm. […] Erastin, equimolar mix of SV119 and Erastin. Tumors were measured every other day with a digital caliper. Several mice from different treatment groups were sent to the Division of Comparative Medicine in our institution for pathologic evaluation. Blood was collected for complete blood count (CBC) and biochemical analysis (AST, ALT, BUN, total bilirubin, and Cr). Organs were examined grossly and histologically.

Substance: SW IV-134
- differences in laboratory values (biochemical analysis) versus vehicle: not statistically significant
